Data taken from ChEMBL document CHEMBL1201862, “PubChem BioAssay data set” (2004).
The source made the active and inactive calls.

What was measured:
[1] = biological target: Delta-type opioid receptor (Homo sapiens, UniProt P41143); assay: Counterscreen for agonists of heterodimerization of the mu 1 (OPRM1) and delta 1 (OPRD1) opioid receptors: Luminescence-based cell-based high throughput dose response assay to identify agonists of OPRD1 homodimerization. [Related pubchem assays (depositor defined):AID504326, AID504355, AID504692, AID504904, AID504905]; assay type: functional
[2] = biological target: T1, Short transient receptor potential channel 4 (Mus musculus, UniProt Q9QUQ5); assay: mouse TRPC4 channel activators, dose response, cell-based, HEK293 TRPC4/mu-opioid, Fluo-4 calcium (AID 434937); assay type: functional
T1 sequence (Q9QUQ5 whole entry): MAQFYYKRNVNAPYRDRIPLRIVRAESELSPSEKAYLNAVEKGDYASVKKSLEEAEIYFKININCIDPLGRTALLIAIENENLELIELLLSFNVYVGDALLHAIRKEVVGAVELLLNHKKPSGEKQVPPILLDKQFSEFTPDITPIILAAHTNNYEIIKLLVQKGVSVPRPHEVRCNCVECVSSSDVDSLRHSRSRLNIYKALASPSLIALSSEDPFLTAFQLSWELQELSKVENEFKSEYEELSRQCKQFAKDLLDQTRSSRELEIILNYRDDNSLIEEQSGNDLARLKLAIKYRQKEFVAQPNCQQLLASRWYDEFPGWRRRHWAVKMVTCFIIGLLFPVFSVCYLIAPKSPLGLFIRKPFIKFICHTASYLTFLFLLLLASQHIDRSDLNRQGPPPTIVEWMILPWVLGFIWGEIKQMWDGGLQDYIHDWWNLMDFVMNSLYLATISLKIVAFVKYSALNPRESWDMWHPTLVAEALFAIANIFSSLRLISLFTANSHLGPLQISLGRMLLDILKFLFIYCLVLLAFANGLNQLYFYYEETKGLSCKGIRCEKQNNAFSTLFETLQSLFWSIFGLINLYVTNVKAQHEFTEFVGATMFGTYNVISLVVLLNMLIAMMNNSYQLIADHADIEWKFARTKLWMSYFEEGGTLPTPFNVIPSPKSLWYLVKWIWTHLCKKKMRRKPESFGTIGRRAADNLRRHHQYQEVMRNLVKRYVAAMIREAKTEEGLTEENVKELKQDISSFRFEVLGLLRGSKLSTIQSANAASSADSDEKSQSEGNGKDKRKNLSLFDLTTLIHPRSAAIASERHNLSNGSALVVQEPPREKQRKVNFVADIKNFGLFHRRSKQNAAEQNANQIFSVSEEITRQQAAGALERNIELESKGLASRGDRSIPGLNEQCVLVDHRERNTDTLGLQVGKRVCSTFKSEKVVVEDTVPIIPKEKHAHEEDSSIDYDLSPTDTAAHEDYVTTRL

[3] = biological target: Mu-type opioid receptor (Homo sapiens, UniProt P35372); assay: Counterscreen for agonists of heterodimerization of the mu 1 (OPRM1) and delta 1 (OPRD1) opioid receptors: Luminescence-based cell-based high throughput dose response assay to identify agonists of OPRM1 homodimerization.; assay type: functional;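 note: U2OS cells expressing OPRM1 and beta-arrestin as split beta-galactosidase partners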
[4] = biological target: 5-hydroxytryptamine receptor 5A (Homo sapiens, UniProt P47898); assay: Counterscreen for agonists of OPRM1-OPRD1 heterodimerization: luminescence-based cell-based high throughput dose response assay to identify agonists of 5-hydroxytryptamine (serotonin) 5A receptor (HTR5A). [Related pubchem assays (depositor defined):AID504326, AID504355, AID504692, AID504904, AID504905]; assay type: functional
[5] = system: Candida albicans; assay: reversal of fluconazole resistance in C. albicans, dose response, CaCi-2 strain, Alamar Blue, dry powder, set 3 (AID 488907); assay type: functional, organism-based
[6] = Luminescence Cell-Based Dose Response Follow up to Identify Inhibitors of Platelet Dense Granule Release. [Related pubchem assays (depositor defined):AID1663, AID1678, AID1889, AID2519]; assay type: functional
[7] = SFLLRN-induced P-Selectin Platelet Surface Expression Measured in Cell-Based System Using Flow Cytometry - 2016-03_Inhibitor_Dose_DryPowder_Activity_Set3. [Related pubchem assays (depositor defined):AID1678]; assay type: functional
[8] = biological target: T2, Microphthalmia-associated transcription factor (Homo sapiens, UniProt O75030); assay: TRPM1 promoter luciferase signal decrease, dose response, MITF inhibitor project, cell-based, SK-MEL-5, cherry-picked, set 3 (AID 493073); assay type: functional
T2 sequence (O75030 whole entry): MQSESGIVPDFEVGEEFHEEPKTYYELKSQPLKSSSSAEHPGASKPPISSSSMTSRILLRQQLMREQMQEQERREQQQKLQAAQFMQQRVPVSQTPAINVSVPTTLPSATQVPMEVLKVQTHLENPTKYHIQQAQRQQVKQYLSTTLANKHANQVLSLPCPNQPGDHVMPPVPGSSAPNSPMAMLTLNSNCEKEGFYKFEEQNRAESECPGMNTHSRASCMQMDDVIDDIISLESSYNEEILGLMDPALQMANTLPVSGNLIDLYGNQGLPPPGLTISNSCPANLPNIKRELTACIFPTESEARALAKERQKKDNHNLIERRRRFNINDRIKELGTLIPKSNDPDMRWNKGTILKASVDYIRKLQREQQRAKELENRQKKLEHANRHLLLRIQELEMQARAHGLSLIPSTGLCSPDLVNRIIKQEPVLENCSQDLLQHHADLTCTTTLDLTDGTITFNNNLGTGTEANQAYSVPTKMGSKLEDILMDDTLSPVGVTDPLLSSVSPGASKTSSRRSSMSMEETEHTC

[9] = growth suppression of PTEN-null colon cells, dose response, cell-based, HCT116 PTEN knockout (AID 1047); assay type: functional;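 note: HCT116 colon tumor cells with PTEN knocked out; cells exposed to compound for 60 hours before readout; potency for loss of cell viability measured by luminescence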
[10] = growth suppression of beta-catenin-knockout colon cells, dose response, cell-based, HCT116, human colon tumor (AID 1045); assay type: functional;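 note: HCT116 colon tumor cells with beta catenin knocked out; cells exposed to compound for 60 hours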
[11] = system: A-375; assay: MITF: Counter assay: A375 proliferation Measured in Cell-Based System Using Plate Reader - 2084-03_Inhibitor_Dose_DryPowder_Activity. [Related pubchem assays (depositor defined):AID488944]; assay type: functional; conditions: Homo sapiens

Mu-type opioid receptor, sequence (P35372 whole entry): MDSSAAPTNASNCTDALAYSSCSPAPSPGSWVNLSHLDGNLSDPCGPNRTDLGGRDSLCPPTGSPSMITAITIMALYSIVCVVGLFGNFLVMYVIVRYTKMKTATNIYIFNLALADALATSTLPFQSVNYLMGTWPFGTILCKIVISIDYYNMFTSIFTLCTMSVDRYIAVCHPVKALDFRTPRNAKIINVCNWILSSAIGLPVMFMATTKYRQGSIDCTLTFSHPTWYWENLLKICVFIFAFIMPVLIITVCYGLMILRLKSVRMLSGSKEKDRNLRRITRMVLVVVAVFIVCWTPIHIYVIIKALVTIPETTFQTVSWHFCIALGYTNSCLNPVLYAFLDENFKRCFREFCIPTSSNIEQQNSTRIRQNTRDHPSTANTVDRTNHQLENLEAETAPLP
Delta-type opioid receptor, sequence (P41143 whole entry): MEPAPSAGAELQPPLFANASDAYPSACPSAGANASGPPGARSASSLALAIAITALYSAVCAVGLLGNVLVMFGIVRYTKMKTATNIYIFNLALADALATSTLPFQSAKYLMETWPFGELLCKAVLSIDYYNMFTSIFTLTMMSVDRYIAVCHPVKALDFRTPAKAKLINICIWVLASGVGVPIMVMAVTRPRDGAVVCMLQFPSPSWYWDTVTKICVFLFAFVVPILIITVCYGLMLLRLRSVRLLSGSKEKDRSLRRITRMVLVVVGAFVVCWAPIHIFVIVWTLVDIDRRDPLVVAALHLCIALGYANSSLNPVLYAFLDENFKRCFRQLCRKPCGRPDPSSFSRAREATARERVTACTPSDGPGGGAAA
5-hydroxytryptamine receptor 5A, sequence (P47898 whole entry): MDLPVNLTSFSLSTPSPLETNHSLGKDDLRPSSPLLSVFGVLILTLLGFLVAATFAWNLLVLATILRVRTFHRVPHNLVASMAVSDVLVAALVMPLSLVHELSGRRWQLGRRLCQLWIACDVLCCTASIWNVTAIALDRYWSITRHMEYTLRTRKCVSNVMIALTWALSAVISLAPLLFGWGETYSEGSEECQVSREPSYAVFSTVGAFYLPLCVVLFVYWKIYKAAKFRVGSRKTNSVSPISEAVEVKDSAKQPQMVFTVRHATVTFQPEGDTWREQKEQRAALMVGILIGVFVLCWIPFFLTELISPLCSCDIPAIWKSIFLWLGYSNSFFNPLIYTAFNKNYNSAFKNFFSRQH

COc1ccc(C(CNC(=O)CCOc2ccccc2)N(C)C)cc1 (stereo unspecified)
EC50 [1]: > 92.5 µM (inactive) | EC50 [2]: 1.06 µM (active) | EC50 [3]: > 92.5 µM (inactive) | EC50 [4]: > 92.5 µM (inactive)

COc1cccnc1N1CCN(C(=O)c2ccc(Cl)cc2)CC1
AC50 [5]: 12.3 µM (active)

CC(=O)Nc1ccc(NC(=O)c2ccccc2Br)cc1
EC50 [6]: 8.7 µM (active) | AC50 [7]: 6.02 µM (active)

Cc1ccc(Cn2c(=N)n(CC(=O)c3ccc([N+](=O)[O-])cc3)c3ccccc32)cc1
AC50 [8]: 6.42 µM (active) | EC50 [9]: 5.32 µM (active) | EC50 [10]: 4.07 µM (active) | AC50 [11]: 33.5 µM (active)
